What was measured:
[1] = system: Enterobacter cloacae; assay: MIC, recent Enterobacteriaceae clinical isolates: Enterobacter cloacae (Examples 7, 11); assay type: cell-based
[2] = system: Citrobacter spp; assay: MIC, recent Enterobacteriaceae clinical isolates: Citrobacter spp (Examples 7, 11); assay type: cell-based
[3] = system: Enterobacteriaceae; assay: organism not typed; assay type: cell-based
[4] = system: A. baumannii; assay: MIC, 20 diverse recent strains of A. baumannii (Example 10); assay type: cell-based, Acinetobacter baumannii; settings: N 20 A. baumannii strains
[5] = system: A. baumannii; assay: Neutropenic mouse thigh and lung infection models; settings: neutropenic CD-1 mice, subcutaneous q3h, sulbactam+compound 1 at 4:1 ratio, 24 h, isolate containing AmpC, OXA-66, OXA-72, TEM-1, FIG. 4
[6] = system: Escherichia coli; assay: MIC, recent Enterobacteriaceae clinical isolates: Escherichia coli (Examples 7, 11)
[7] = system: Klebsiella pneumoniae; assay: MIC, recent Enterobacteriaceae clinical isolates: Klebsiella pneumoniae (Examples 7, 11)
[8] = system: A. baumannii; assay: MIC by broth microdilution (CLSI), panel of 60 A. baumannii clinical isolates (Example 1); settings: Acinetobacter baumannii
[9] = system: A. baumannii; assay: MIC90 of common antibiotics+compound 1, 196 contemporary clinical isolates of A. baumannii (Example 4); settings: B-lactam + Cmpd 1 (4 μg/mL)

CC1(C)[C@H](C(=O)O)N2C(=O)C[C@H]2S1(=O)=O [Sulbactam, (2S,5R)-3,3-dimethyl-7-oxo-4-thia-1-azabicyclo[3.2.0]heptane-2-carboxylic acid 4,4-dioxide]
4 µg/mL: MIC ([8]; strain ARC2682, SHV-5, OXA-113) | MIC ([8]; strain ARC2780 (A. baumannii/calcoaceticus complex), OXA*, OXA-2, IMP-1) | MIC ([8]; strain ARC3487, OXA-20, OXA-58, OXA-66) | MIC ([8]; strain ARC3494, OXA-65) | MIC ([8]; strain ARC3659, OXA-23, OXA*) | MIC ([8]; strain ARC5084, IMP-4(B), OXA-58, OXA-65)
64 µg/mL: MIC50 [1] | MIC ([1]; Enterobacter cloacae ARC4444, AmpC+, MIR-8[I175L]) | MIC ([1]; Enterobacter cloacae ARC4458, AmpC+, ACT-2[V312M]) | MIC ([2]; Citrobacter koseri ARC2001, ESBL) | MIC ([2]; Citrobacter koseri ARC2002, ESBL) | MIC50 [3] | MIC90 [4] | MIC50 ([6]; Escherichia coli) | MIC90 ([6]; Escherichia coli) | MIC ([6]; Escherichia coli, ATCC25922, Escherichia coli ARC4, none (ATCC 25922) CLSI control) | MIC ([6]; Escherichia coli, Escherichia coli ARC4421, CTX-M-55, TEM-1+, CMY-2+) | MIC ([6]; Escherichia coli, Escherichia coli ARC4429, TEM-1+, CMY-2+) | MIC ([6]; Escherichia coli, Escherichia coli ARC4449, CMY-2+, TEM-1+) | MIC ([6]; Escherichia coli, Escherichia coli ARC4450, TEM-1+, OXA-1+, CMY-2+) | MIC ([6]; Escherichia coli, Escherichia coli ARC4472, CMY-2+, TEM-1+) | MIC ([6]; Escherichia coli, Escherichia coli ARC4479, CMY-42+, OXA-1+, OXA-9+, TEM-1+) | MIC ([6]; Escherichia coli, Escherichia coli ARC4485, CMY-2+, OXA-1+, CTX-M-15+) | MIC ([6]; Escherichia coli, Escherichia coli ARC4487, SHV-5+, DHA-1+, TEM-1+, OXA-1+, CMY-2+) | MIC50 [7] | MIC ([7]; Klebsiella pneumoniae ARC4457, SHV-11, DHA-1) | MIC ([7]; Klebsiella pneumoniae ARC4467, SHV-33, TEM-1, OXA-1, DHA-1) | MIC ([7]; Klebsiella pneumoniae ARC4468, SHV-1) | MIC ([7]; Klebsiella pneumoniae ARC4488, SHV-11, CTX-M15, OXA-1, TEM-1) | MIC ([8]; strain ARC3493, OXA-40, OXA-66) | MIC ([8]; strain ARC5074, GES*, TEM-1, OXA-51) | MIC ([8]; strain ARC5082, OXA-66, OXA-23)
128 µg/mL: MIC ([1]; Enterobacter cloacae ARC4438, AmpC+) | MIC ([1]; Enterobacter cloacae ARC4473, SHV-5+, AmpC+, DHA-1+, TEM-1+) | MIC ([1]; Enterobacter cloacae ARC4489, AmpC+) | MIC90 ([1]; N 10) | MIC ([6]; Escherichia coli) | MIC ([6]; Escherichia coli ARC4471, CMY-2+, OXA-1+, TEM-1+) | MIC ([7]; Klebsiella pneumoniae ARC4420, SHV-11, SHV-12, DHA-1, OXA-1) | MIC ([7]; Klebsiella pneumoniae ARC4486, SHV-11, DHA-1, OXA-1[E69K])
256 µg/mL: MIC ([1]; Enterobacter cloacae ARC4492, AmpC+) | MIC50 ([2]; Citrobacter) | MIC ([2]; Citrobacter freundii ARC3883, KPC-2) | MIC ([2]; Citrobacter freundii ARC3884, KPC-2) | MIC ([2]; Citrobacter freundii ARC3885, AmpH, TEM-1, SHV-5, CMY-6, CMY-13) | MIC90 [3] | MIC ([7]; Klebsiella pneumoniae ARC4490, SHV-11, CTX-M15, KPC-2, OXA-1)
> 256 µg/mL: MIC90 ([2]; Citrobacter) | MIC ([2]; Citrobacter freundii ARC3522, AmpC, TEM-1, CMY65) | MIC90 [7] | MIC ([7]; Klebsiella pneumoniae ARC4427, SHV-1, OXA-1) | MIC ([7]; Klebsiella pneumoniae ARC4451, SHV-11, KPC-3) | MIC ([7]; Klebsiella pneumoniae ARC4460, SHV-11, CTX-M15, OXA-1, NDM-1) | MIC ([7]; Klebsiella pneumoniae ARC4476, SHV-11, KPC-2, OXA-9[W117*])
0.5 µg/mL: MIC ([8]; strain ARC3491 (A. baumannii/calcoaceticus complex), OXA-215)
16 µg/mL: MIC50 [4] | MIC50 [8] | MIC ([8]; strain ARC2461, OXA-66, TEM-1) | MIC ([8]; strain ARC2462, TEM-1, OXA-66) | MIC ([8]; strain ARC2598, OXA*, TEM-1, OXA-113) | MIC ([8]; strain ARC2675, SHV-5, OXA-113) | MIC ([8]; strain ARC2681, OXA-40, TEM-1, OXA-132) | MIC ([8]; strain ARC2778, OXA-40, TEM-1, OXA-65) | MIC ([8]; strain ARC2779 (A. baumannii/calcoaceticus complex), OXA-2, VIM-2) | MIC ([8]; strain ARC3484, TEM-1, OXA-23, OXA-64) | MIC ([8]; strain ARC3488, OXA*, OXA-68) | MIC ([8]; strain ARC3492, OXA-40, OXA-132, TEM-1) | MIC ([8]; strain ARC3513, TEM-1, OXA-23, OXA-65) | MIC ([8]; strain ARC5073, OXA-23, TEM-1, OXA-64, PER-1) | MIC ([8]; strain ARC5075, SHV-5, OXA-113) | MIC ([8]; strain ARC5083, OXA-66, OXA-23) | MIC ([8]; strain ARC5088, OXA-20, OXA-58, OXA-66)
> 64 µg/mL: MIC Max [4] | MIC ([8]; strain ARC3882, OXA-23, NDM-1, OXA-10*)
2 µg/mL: MIC Min [4] | MIC ([8]; strain ARC2058, OXA-95) | MIC ([8]; strain ARC3489, OXA*, OXA-68) | MIC90 [9]
32 µg/mL: MIC ([2]; Citrobacter braakii ARC3660, CTX-M-15) | MIC ([6]; Escherichia coli, Escherichia coli ARC4416, CTX-M-14+, TEM-1+) | MIC ([6]; Escherichia coli, Escherichia coli ARC4418, CTX-M-14+, CMY-2+) | MIC ([6]; Escherichia coli, Escherichia coli ARC4419, SHV-12+) | MIC ([6]; Escherichia coli, Escherichia coli ARC4426, TEM-1+, CMY-2+) | MIC ([6]; Escherichia coli, Escherichia coli ARC4436, CTX-M-14+, TEM-1+) | MIC ([6]; Escherichia coli, Escherichia coli ARC4452, SHV-12+) | MIC ([6]; Escherichia coli, Escherichia coli ARC4455, SHV-12+) | MIC ([6]; Escherichia coli, Escherichia coli ARC4465, CMY-2+) | MIC ([6]; Escherichia coli, Escherichia coli ARC4477, CTX-M-15+, TEM-1+) | MIC ([6]; Escherichia coli, Escherichia coli ARC4478, CTX-M-15+, CMY-2+) | MIC ([7]; Klebsiella pneumoniae ARC4482, SHV-27[A122V], OXA-1) | MIC90 [8] | MIC ([8]; strain ARC2635, OXA-65, OXA-40, TEM-1) | MIC ([8]; strain ARC2636, OXA-65, OXA-40, TEM-1) | MIC ([8]; strain ARC2782, OXA-66, OXA-23, TEM-1, PER-1) | MIC ([8]; strain ARC3486, OXA-72, OXA-66, TEM-1) | MIC ([8]; strain ARC3490, TEM-1+, PSE-2, OXA-69) | MIC ([8]; strain ARC3495, OXA-40, OXA-109) | MIC ([8]; strain ARC3657, OXA-130) | MIC ([8]; strain ARC3658, OXA-66, PER-1, TEM-1, OXA-23) | MIC ([8]; strain ARC5076, TEM-1, OXA-23, OXA-66) | MIC ([8]; strain ARC5077, OXA*, OXA-72) | MIC ([8]; strain ARC5079, OXA-72, OXA-65) | MIC ([8]; strain ARC5080, OXA-71, OXA-40) | MIC ([8]; strain ARC5085, OXA*, TEM-1) | MIC ([8]; strain ARC5086, OXA*, TEM-1, OXA-72, OXA-66) | MIC ([8]; strain ARC5087, OXA-66, OXA-23) | MIC ([8]; strain ARC5089, PER*, TEM-1, OXA-23, OXA-66)
failed to show efficacy: efficacy (mean delta log CFU) [5]
1 µg/mL: MIC ([8]; strain ARC593, OXA-98)
64 to 256 µg/mL: MIC range ([1]; N 10)
